Reference: publication PMC11954145, “Antimicrobial and ADME properties of methoxylated, methylated and nitrated 2-hydroxynaphthalene-1 carboxanilides” (ADMET & DMPK, 2025)
≈ marks a conversion by molar mass, not a printed value. Where “and” joins values, the source holds several entries; their conditions need not be identical. Equal entries are not always repeated. Where two headings read alike, the source gives them in different places.

How the values were obtained:
[1] = Lipophilicity determination by RP-HPLC (log k, log D); format: physicochemical; conditions: for log D6.5: RP-HPLC C18, MeOH 72 % / acetate-buffered saline pH 6.5; for log D7.4: RP-HPLC C18, MeOH 72 % / acetate-buffered saline pH 7.4; for log k (logarithm of the capacity factor): RP-HPLC C18, MeOH 72 % / water 28 %
Text: An HPLC system Agilent 1200 equipped with a DAD detector (Agilent, Santa Clara, CA, USA) was used. A chromatographic column Symmetry® C18 5 μm, 4.6×250 mm, part No. WAT054275 (Waters Corp., Milford, MA, USA) was used. The HPLC separation process was monitored and evaluated with EZChrom Elite software ver. 3.3.2 (Agilent). Isocratic elution by a mixture of MeOH p.a. (72 %) and H2O-HPLC Mili-Q grade (28 %) as a mobile phase was used for the determination of capacity factor k. Isocratic elution by a mixture of MeOH p.a. (72 %) and acetate-buffered saline (pH 7.4 and pH 6.5) (28 %) as a mobile phase was used for the determination of distribution coefficients expressed as D7.4 and D6.5. The total flow of the column was 1.0 mL min^-1, the injection volume was 20 μL, the column temperature was 40 °C, and the sample temperature was 10 °C. The detection wavelength of 210 nm was chosen. A KI methanolic solution was used to determine the dead times (tD). Retention times (tR) were measured in minutes. The capacity factors k were calculated according to the formula k = (tR–tD)/tD, where tR is the retention time of the solute, and tD is the dead time obtained using an unretained analyte. The distribution coefficients DpH were calculated according to the formula DpH = (tR–tD)/tD. Each experiment was repeated three times.
The capacity factor and distribution coefficients were measured by RP-HPLC on a C18 column with methanol as an organic modifier of the mobile phase. In addition to the experimental lipophilicities, predicted log P values were also calculated using ACD/Percepta, see Table 1. […] The values of σ(Ar) are found in a wide range from 0.01 to 1.36, so the compounds contain substituents with both electron-donating and slightly electron-withdrawing properties.

S. aureus ATCC 29213 = test: Antibacterial screening, broth microdilution MIC; format: cell-based; conditions: Staphylococcus aureus, ATCC29213; ATCC 29213, 24 h at 37 °C; read-out: MIC S. aureus
MRSA 63718 = test: Antibacterial screening, broth microdilution MIC; format: cell-based, methicillin-resistant S. aureus; conditions: Staphylococcus aureus, read-out: MIC MRSA 63718
MRSA SA 630 = test: Antibacterial screening, broth microdilution MIC; format: cell-based, methicillin-resistant S. aureus; conditions: Staphylococcus aureus, clinical isolate, 24 h at 37 °C, read-out: MIC MRSA SA 630
MRSA SA 3202 = test: Antibacterial screening, broth microdilution MIC; format: cell-based, methicillin-resistant S. aureus; conditions: Staphylococcus aureus, clinical isolate, 24 h at 37 °C, read-out: MIC MRSA SA 3202
[2] = test system: Enterococcus faecalis ATCC 29212; test: Antibacterial screening, broth microdilution MIC; format: cell-based; conditions: ATCC29212, ATCC 29212, 24 h at 37 °C, read-out: MIC E. faecalis
VRE 342B = test: Antibacterial screening, broth microdilution MIC; format: cell-based, vancomycin-resistant E. faecalis; conditions: Enterococcus, vanA isolate, 24 h at 37 °C, read-out: MIC VRE 342B
VRE 725B = test: Antibacterial screening, broth microdilution MIC; format: cell-based, vancomycin-resistant E. faecalis; conditions: Enterococcus, vanA isolate, 24 h at 37 °C, read-out: MIC VRE 725B
VRE 368 = test: Antibacterial screening, broth microdilution MIC; format: cell-based, vancomycin-resistant E. faecalis; conditions: Enterococcus, vanA isolate, 24 h at 37 °C, read-out: MIC VRE 368
E. coli ATCC 25922 = test: Antibacterial screening, broth microdilution MIC; format: cell-based; conditions: Escherichia coli, ATCC25922; ATCC 25922, 24 h at 37 °C
[3] = test system: Mycobacterium tuberculosis ATCC 25177/H37Ra; test: Antimycobacterial screening, broth dilution MIC (Alamar blue); format: cell-based; conditions: 336 h, H37Ra, 14 days at 37 °C, Alamar blue, read-out: MIC M. tuberculosis
Method: The evaluation of in vitro antimycobacterial activity of the compounds was performed against Mycobacterium tuberculosis ATCC 25177/H37Ra, Mycobacterium kansasii DSM 44162 and Mycobacterium smegmatis ATCC 700084.
The broth dilution micro-method in Middlebrook 7H9 medium (Difco, Lawrence, KS, USA) supplemented with ADC Enrichment (Difco) was used to determine the minimum inhibitory concentration (MIC) as previously described. […] The final concentrations of the evaluated compounds, ranging from 256 to 0.125 μg mL^-1, were obtained by twofold serial dilution of the stock solution in a microtiter plate with a sterile medium. Bacterial inocula were prepared by transferring colonies from culture to sterile water. The plate was inoculated by tested microorganisms. The final concentration of bacterial cells was 1.5×10^6 for M. tuberculosis and 10^5 cells in a microtiter plate for other mycobacteria. Isoniazid and rifampicin (Sigma) were used as reference antimycobacterial drugs. Drug-free controls, sterility controls, and controls consisting of medium and DMSO alone were included. The plates were incubated for a defined time at an appropriate temperature (3 days at 37 °C for M. smegmatis, and 14 days at 37 °C for M. tuberculosis and M. kansasii). […] The MICs against M. tuberculosis were evaluated by Alamar blue (Oxoid). After incubation, 10 % of Alamar blue was added to each well, and the plate was incubated for 24 h. The MIC values were assessed as the lowest concentration of the tested compounds, which prevented changing blue resazurin to pink resorufin. The experiments were repeated three times. The minimum inhibitory concentrations (MICs) were defined as the lowest concentration of the compound at which no visible bacterial growth was observed. The MIC value is routinely and widely used in bacterial assays and is a standard detection limit according to the CLSI [60].

[4] = test system: Mycobacterium kansasii DSM 44162; test: Antimycobacterial screening, broth dilution MIC; format: cell-based; conditions: DSM44162, 336 h, read-out: MIC M. kansasii
[5] = test system: Mycobacterium smegmatis ATCC 700084; test: Antimycobacterial screening, broth dilution MIC; format: cell-based; conditions: Mycolicibacterium smegmatis, ATCC700084, 72 h; ATCC 700084, 3 days at 37 °C; read-out: MIC M. smegmatis
[6] = test system: human monocytic leukemia THP-1 cells; conditions: cited from earlier work
in vitro = conditions: human
Method: Cytotoxicity of the compounds was determined using an LDH assay kit (Roche Diagnostics, Mannheim, Germany) as described previously. Human monocytic leukemia THP-1 cells (European Collection of Cell Cultures, Salisbury, UK) were exposed for 24 h at 37 °C to various compound concentrations ranging from 0.37 to 30 μM in RPMI 1640 medium. For LDH assays, cells were seeded into 96-well plates (5×10^4 cells/well in 100 μL culture medium) in triplicate in serum-free RPMI 1640 medium and measurements were taken 24 h after the treatment with the compounds. The maximum concentration of DMSO (Sigma) in the assays never exceeded 0.1 %. […] The median lethal dose values, LC50, were deduced through the production of a dose-response curve. All data from three independent experiments were evaluated using GraphPad Prism 5.00 software (GraphPadSoftware, San Diego, CA, USA).

[7] = clinical isolate, 24 h at 37 °C

| SMILES | log D6.5 [1] | log D7.4 [1] | log k (logarithm of the capacity factor) [1] | MIC (S. aureus ATCC 29213) | MIC (MRSA 63718; 24 h) | MIC (MRSA SA 630) | MIC (MRSA SA 3202) | MIC [2] | MIC (VRE 342B) | MIC (VRE 725B) | MIC (VRE 368) | MIC (E. coli ATCC 25922) | MIC [3] | MIC ([4]; DSM 44162, 14 days at 37 °C) | MIC [5] | MIC (MRSA 63718; [7]) | CC50 [6] | MIC [4] | CC50 at 24 h (in vitro) |
| --- | --- | --- | --- | --- | --- | --- | --- | --- | --- | --- | --- | --- | --- | --- | --- | --- | --- | --- | --- |
| Cc1ccc(NC(=O)c2c(O)ccc3ccccc23)cc1C(F)(F)F [Compound 23, 2-Hydroxy-N-[4-methyl-3-(trifluoromethyl)phenyl]naphthalene-1-carboxamide] | 0.4621 | 0.4636 | 0.46 and 0.4605 | 23.2 µM (≈ 8.01 µg/mL) | 371 µM (≈ 128 µg/mL) | 92.7 µM (≈ 32 µg/mL) | 46.3 µM (≈ 16 µg/mL) | 741 µM (≈ 256 µg/mL) | 741 µM (≈ 256 µg/mL) | 741 µM (≈ 256 µg/mL) | 741 µM (≈ 256 µg/mL) | 741 µM (≈ 256 µg/mL) | 371 µM (≈ 128 µg/mL) | 741 µM (≈ 256 µg/mL) | 46.3 µM (≈ 16 µg/mL) | – | – | – | – |
| O=C(Nc1ccccc1[N+](=O)[O-])c1c(O)ccc2ccccc12 [Compound 24, 2-hydroxy-N-(2-nitrophenyl)naphthalene-1-carboxamide] | 0.3077 | 0.3103 | 0.3033 | 26 µM (≈ 8.02 µg/mL) | – | – | 51.9 µM (≈ 16 µg/mL) | 830 µM (≈ 256 µg/mL) | 830 µM (≈ 256 µg/mL) | 830 µM (≈ 256 µg/mL) | 830 µM (≈ 256 µg/mL) | 830 µM (≈ 256 µg/mL) | 104 µM (≈ 32.1 µg/mL) | 51.9 µM (≈ 16 µg/mL) | 208 µM (≈ 64.1 µg/mL) | 415 µM (≈ 128 µg/mL) | > 20 µM | – | – |
| O=C(Nc1cccc([N+](=O)[O-])c1)c1c(O)ccc2ccccc12 [Compound 25, 2-hydroxy-N-(3-nitrophenyl)naphthalene-1-carboxamide] | 0.3462 | 0.3058 | 0.4882 | 208 µM (≈ 64.1 µg/mL) | – | 208 µM (≈ 64.1 µg/mL) | 208 µM (≈ 64.1 µg/mL) | 830 µM (≈ 256 µg/mL) | 830 µM (≈ 256 µg/mL) | 830 µM (≈ 256 µg/mL) | 830 µM (≈ 256 µg/mL) | 830 µM (≈ 256 µg/mL) | 104 µM (≈ 32.1 µg/mL) | – | 208 µM (≈ 64.1 µg/mL) | 26 µM (≈ 8.02 µg/mL) | > 20 µM | 104 µM (≈ 32.1 µg/mL) | – |
| O=C(Nc1ccc([N+](=O)[O-])cc1)c1c(O)ccc2ccccc12 [Compound 26, 2-hydroxy-N-(4-nitrophenyl)naphthalene-1-carboxamide] | 0.0862 | 0.0879 | 0.0984 | > 830 µM | – | 415 µM (≈ 128 µg/mL) | – | 415 µM (≈ 128 µg/mL) | 830 µM (≈ 256 µg/mL) | 830 µM (≈ 256 µg/mL) | 830 µM (≈ 256 µg/mL) | 830 µM (≈ 256 µg/mL) | 104 µM (≈ 32.1 µg/mL) | 415 µM (≈ 128 µg/mL) | 208 µM (≈ 64.1 µg/mL) | 830 µM (≈ 256 µg/mL) | 2.5 ± 0.1 µM | – | – |
| O=C(Nc1ccc([N+](=O)[O-])c(C(F)(F)F)c1)c1c(O)ccc2ccccc12 [Compound 27, 2-Hydroxy-N-[4-nitro-3-(trifluoromethyl)phenyl]naphthalene-1-carboxamide] | 0.3282 | 0.3220 | – | 0.332 µM (≈ 0.125 µg/mL) | – | 1.33 µM (≈ 0.5 µg/mL) | 1.33 µM (≈ 0.5 µg/mL) | 21.3 µM (≈ 8.01 µg/mL) | 42.5 µM (≈ 16 µg/mL) | 42.5 µM (≈ 16 µg/mL) | 21.3 µM (≈ 8.01 µg/mL) | 680 µM (≈ 256 µg/mL) | 85 µM (≈ 32 µg/mL) | 21.3 µM (≈ 8.01 µg/mL) | 21.3 µM (≈ 8.01 µg/mL) | 1.33 µM (≈ 0.5 µg/mL) | – | – | > 30 µM |
